From the supplement of paper PMC10307832

Key:
Assay in all cases: relative viability (nuclei count vs DMSO), 5 days (fraction); higher = more cells survive
[1] = compound: CCOC(=O)CCNc1cc(N2CCc3ccccc3CC2)nc(-c2ccccn2)n1 [GSK-J4] + NC(=O)Nc1cc(-c2cccc(F)c2)sc1C(=O)N[C@H]1CCCNC1 [AZD7762] (partner 0.2 µM)
Method in brief: (§1)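 Cells from lung cancer lines were seeded into 1536-well plates and, one day later, dosed by pin tool. Treatments were either a single drug or a fixed dose of an anchor drug with five library-drug doses (not always all listed) in √10 steps. After 5 days, nuclei were stained in a one-step fixation (final 0.05% Triton X-100, 1% formaldehyde, 1 ug/ml Hoechst) and counted on 4× images, and relative viability is the treated-to-vehicle nuclei ratio, as the median of duplicate plates.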

[2] = compound: CCOC(=O)CCNc1cc(N2CCc3ccccc3CC2)nc(-c2ccccn2)n1 [GSK-J4] + COc1cccc2cc(-c3nc([C@H]4CC[C@H](C(=O)O)CC4)n4ncnc(N)c34)[nH]c12 [OSI-027] (partner 0.5 µM)
Method in brief: as §1

[3] = compound: CCOC(=O)CCNc1cc(N2CCc3ccccc3CC2)nc(-c2ccccn2)n1 [GSK-J4] + Cc1cc(Nc2cc(N3CCN(C)CC3)nc(Sc3ccc(NC(=O)C4CC4)cc3)n2)n[nH]1 [Tozasertib] (partner 0.1 µM)
Method in brief: as §1

[4] = compound: CN1CCC(CC1)OC2=CC(=C(C=C2)NC3=NC=C4C(=N3)N(C(=O)N4C)C5CCCC5)OC [AZ3146] + Cc1nc(NC(=O)N2CCC[C@H]2C(N)=O)sc1-c1ccnc(C(C)(C)C(F)(F)F)c1 [Alpelisib] (partner 2 µM)
Method in brief: as §1

| Cell Line | relative viability ([1]; first compound 0.5 µM) | relative viability ([1]; first compound 1.581 µM) | relative viability ([1]; first compound 5 µM) | relative viability ([1]; first compound 15.81 µM) | relative viability ([1]; first compound 50 µM) | relative viability ([2]; first compound 0.5 µM) | relative viability ([2]; first compound 1.581 µM) | relative viability ([2]; first compound 5 µM) | relative viability ([2]; first compound 15.81 µM) | relative viability ([2]; first compound 50 µM) | relative viability ([3]; first compound 0.5 µM) | relative viability ([3]; first compound 1.581 µM) | relative viability ([3]; first compound 5 µM) | relative viability ([3]; first compound 15.81 µM) | relative viability ([3]; first compound 50 µM) | relative viability ([4]; first compound 0.08 µM) | relative viability ([4]; first compound 0.253 µM) | relative viability ([4]; first compound 0.8 µM) | relative viability ([4]; first compound 2.53 µM) | relative viability ([4]; first compound 8 µM) |
| --- | --- | --- | --- | --- | --- | --- | --- | --- | --- | --- | --- | --- | --- | --- | --- | --- | --- | --- | --- | --- |
| HCC-827 | 0.203 | 0.565 | 0.252 | 0.197 | 0.21 | 0.751 | 0.635 | 0.792 | 0.576 | 0.787 | 0.408 | 0.434 | 0.44 | 0.4 | 0.362 | 1.02 | 0.976 | 1.08 | 0.921 | 0.968 |
| HOP-62 | 0.555 | 0.573 | 0.45 | 0.592 | 0.451 | 0.69 | 0.692 | 0.722 | 0.858 | 0.497 | 0.344 | 0.335 | 0.358 | 0.339 | 0.24 | 0.896 | 0.96 | 0.796 | 1.07 | 0.832 |
| NCI-H1437 | 1.1 | 0.898 | 1.02 | 1.07 | 0.595 | 0.899 | 0.761 | 0.806 | 0.882 | 0.648 | 0.391 | 0.372 | 0.384 | 0.377 | 0.293 | 0.954 | 1.05 | 0.876 | 0.96 | 0.911 |
| PC-14 | 0.503 | 0.316 | – | 0.315 | 0.343 | 0.844 | 0.759 | 0.777 | 0.778 | 0.694 | 0.547 | 0.542 | – | 0.564 | 0.665 | 0.897 | 0.976 | 0.979 | 1.07 | 0.916 |
| CAL-12T | 0.705 | 0.646 | 0.557 | 0.649 | 0.675 | 0.631 | 0.646 | 0.778 | 0.61 | 0.528 | 0.304 | 0.324 | 0.336 | 0.264 | 0.357 | 1.21 | 1.31 | 1.36 | 1.31 | 0.765 |
| LOU-NH91 | 0.773 | 0.734 | 0.561 | 0.703 | 0.74 | 0.749 | 0.721 | 0.56 | 0.69 | 0.792 | 0.654 | 0.502 | 0.438 | 0.619 | 0.644 | 0.662 | 0.663 | 0.681 | 0.711 | 0.672 |
| EMC-BAC-2 | 1.12 | 0.831 | – | 1.07 | 0.893 | 0.347 | 0.386 | 0.249 | 0.315 | 0.311 | 0.251 | 0.248 | 0.215 | 0.263 | 0.285 | 0.718 | 0.718 | 0.768 | 0.743 | 0.84 |
| NCI-H1355 | 0.731 | 0.693 | 0.516 | 0.532 | 0.584 | 0.438 | 0.316 | 0.35 | 0.29 | 0.278 | 0.517 | 0.517 | 0.575 | 0.439 | 0.437 | 0.836 | 0.849 | 0.897 | 0.723 | 0.809 |
| ABC-1 | 0.784 | 0.784 | 0.955 | 0.666 | 0.445 | 0.533 | 0.442 | 0.441 | 0.357 | 0.336 | 0.188 | 0.166 | 0.171 | 0.166 | 0.188 | 0.968 | 0.981 | 1.23 | 1 | 1.09 |
| NCI-H727 | 0.425 | 0.54 | 0.728 | 0.585 | 0.341 | 0.745 | 0.383 | 0.842 | 0.55 | 0.322 | 0.714 | 0.541 | 0.621 | 0.585 | 0.463 | 0.506 | 0.457 | 0.48 | 0.612 | 0.333 |
| NCI-H1666 | 0.889 | 0.807 | 0.688 | 0.768 | 0.573 | 0.836 | 0.738 | 1.15 | 0.763 | 0.648 | 0.606 | 0.499 | 0.635 | 0.534 | 0.502 | 0.739 | 0.848 | 0.962 | 0.956 | 0.841 |
| NCI-H2126 | 1 | 0.928 | 1.05 | 0.891 | 0.89 | 0.706 | 0.7 | 0.949 | 0.576 | 0.45 | 0.793 | 0.676 | 0.794 | 0.839 | 0.733 | 0.683 | 0.705 | 0.757 | 0.724 | 0.731 |
| NCI-H1793 | 0.595 | 0.324 | 0.215 | 0.151 | 0.156 | 0.36 | 0.215 | 0.258 | 0.167 | 0.2 | 0.331 | 0.315 | 0.305 | 0.266 | 0.286 | 0.578 | 0.743 | 0.758 | 0.779 | 0.624 |
| LCLC-97TM1 | 0.197 | 0.23 | 0.384 | 0.209 | 0.337 | 0.443 | 0.357 | 0.574 | 0.342 | 0.269 | 0.322 | 0.187 | 0.226 | 0.146 | 0.165 | – | – | 0.245 | 0.3 | 0.247 |
| HARA | 0.349 | 0.36 | – | 0.218 | 0.161 | 0.548 | – | – | 0.282 | 0.219 | 0.124 | – | – | 0.103 | 0.117 | 0.629 | 0.785 | 0.883 | 0.909 | 0.725 |
| LC-2-ad | 0.845 | 0.756 | 0.634 | 0.785 | 0.81 | 0.828 | 0.759 | 0.659 | 0.623 | 0.528 | 0.429 | 0.377 | 0.41 | 0.399 | 0.36 | 0.793 | 0.797 | 0.866 | 0.956 | 0.792 |
